Results: patent US20250129070A1, “BIFUNCTIONAL ANDROGEN RECEPTOR COMPOUNDS” (priority 2023, published 2025)

Tests used:
Type in all cases: cell-based
AR / CBP ternary complex = experiment: Ternary complex formation assay (sandwich ELISA, AR capture / CBP detection) in VCaP cell lysates; details: 1.5 hours treatment, sandwich ELISA (AR capture, CBP or p300 detection)
Summary of the method: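 Anti-AR (AR 441)-coated plates capture AR from lysates of VCaP cells grown ≥3 days at 50K/well in 5% charcoal-stripped FBS, dosed with bifunctional for 1.5 h and lysed 30 min at 4 °C. Co-captured CBP/p300 is probed with rabbit mAb and HRP anti-rabbit, then QuantaRed fluorescence (570/585) is read at 0, 5 and 15 min.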

VCaP cells = experiment: VCaP growth inhibition assay; details: 30 pM R1881, 9 days, CTG
Summary of the method: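 Growth read by CTG luminescence after 9-day exposure to compound (final 100 nM–10 fM, 1:5 steps) plus 30 pM R1881, in phenol red-free DMEM with 5% CSS. Cells pre-incubated 72 h before dosing; IC50 by nonlinear 4-parameter regression.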

HEK-293 cells = experiment: HEK-293 growth inhibition assay; details: 3 days, CTG
Protocol: Cluster plates are returned to the incubator (37*C/5% CO2) for 24 hours prior to treatment. […] Cluster plates are returned to the incubator for 3 days.
After the 3-day treatment period, 100 uL media was removed from each well by aspiration and 100 uL room temperature CTG reagent (Promega Cat #G7573) is added back to each well. The cluster plates are placed on a shaker and incubated at room temperature for 20 minutes. Following this shaking/incubation, cluster plates are read on a luminometer (BMG ClarioStar). IC50 values are obtained by graphing the RLU data vs. compound concentration with nonlinear regression 4-parameter logistic curves (GraphPad Prism).

Compound | EC50 (AR / CBP ternary complex) [nM] | IC50 (VCaP cells) [nM] | IC50 (HEK-293 cells) [nM]
CC(=O)N1CCc2c(c(-c3cccc4cc(-c5cnc(C(=O)NCc6ncc(C(=O)NC7C(C)(C)C(Oc8ccc(C#N)c(Cl)c8)C7(C)C)cn6)nc5)ncc34)nn2C2CCOCC2)C1 (stereo not drawn) [Compound 75, 5-[8-(5-acetyl-1-tetrahydropyran-4-yl-6,7-dihydro-4H-pyrazolo[4,3-c]pyridin-3-yl)-3-isoquinolyl]-N-[[5-[[3-(3-chloro-4-cyano-phenoxy)-2,2,4,4-tetramethyl-cyclobutyl]carbamoyl]pyrimidin-2-yl]methyl]pyrimidine-2-carboxamide] | > 100 | 0.1 to 1 | > 10000
CC(=O)N1CCc2c(c(N3CCCc4cc(-c5cnn(C)c5)c(C(F)F)cc43)nn2C2CCN(C(=O)OC3CCN(c4ncc(C(=O)NC5C(C)(C)C(Oc6ccc(C#N)c(Cl)c6)C5(C)C)cn4)CC3)CC2)C1 (stereo not drawn) [Compound 70, [1-[5-[[3-(3-chloro-4-cyano-phenoxy)-2,2,4,4-tetramethyl-cyclobutyl]carbamoyl]pyrimidin-2-yl]-4-piperidyl]4-[5-acetyl-3-[7-(difluoromethyl)-6-(1-methylpyrazol-4-yl)-3,4-dihydro-2H-quinolin-1-yl]-6,7-dihydro-4H-pyrazolo[4,3-c]pyridin-1-yl]piperidine-1-carboxylate] | < 1 | 0.1 to 1 | > 10000
CNC(=O)N1CCc2c(c(N3CCCc4cc(-c5cnn(C)c5)c(C(F)F)cc43)nn2C2CCN(C(=O)COCCOCCN3CCN(c4ncc(C(=O)NC5C(C)(C)C(Oc6ccc(C#N)c(Cl)c6)C5(C)C)cn4)CC3)CC2)C1 (stereo not drawn) [Compound 103, 1-[1-[2-[2-[2-[4-[5-[[3-(3-chloro-4-cyano-phenoxy)-2,2,4,4-tetramethyl-cyclobutyl]carbamoyl]pyrimidin-2-yl]piperazin-1-yl]ethoxy]ethoxy]acetyl]-4-piperidyl]-3-[7-(difluoromethyl)-6-(1-methylpyrazol-4-yl)-3,4-dihydro-2H-quinolin-1-yl]-N-methyl-6,7-dihydro-4H-pyrazolo[4,3-c]pyridine-5-carboxamide] | < 1 | 0.1 to 1 | > 10000
CNC(=O)N1CCc2c(c(N3CCCc4cc(-c5cnn(C)c5)c(C(F)F)cc43)nn2C2CCN(C(=O)COCCN3CCN(c4ncc(C(=O)NC5C(C)(C)C(Oc6ccc(C#N)c(Cl)c6)C5(C)C)cn4)CC3)CC2)C1 (stereo not drawn) [Compound 106, 1-[1-[2-[2-[4-[5-[[3-(3-chloro-4-cyano-phenoxy)-2,2,4,4-tetramethyl-cyclobutyl]carbamoyl]pyrimidin-2-yl]piperazin-1-yl]ethoxy]acetyl]-4-piperidyl]-3-[7-(difluoromethyl)-6-(1-methylpyrazol-4-yl)-3,4-dihydro-2H-quinolin-1-yl]-N-methyl-6,7-dihydro-4H-pyrazolo[4,3-c]pyridine-5-carboxamide] | < 1 | ≤ 0.1 | > 10000
CNC(=O)N1CCc2c(c(N3CCCc4cc(-c5cnn(C)c5)c(C(F)F)cc43)nn2C2CCN(C(=O)CN3CCN(c4ccc(C(=O)NC5C(C)(C)C(Oc6ccc(C#N)c(Cl)c6)C5(C)C)cn4)CC3)CC2)C1 (stereo not drawn) [Compound 42, 1-[1-[2-[4-[5-[[3-(3-chloro-4-cyano-phenoxy)-2,2,4,4-tetramethyl-cyclobutyl]carbamoyl]-2-pyridyl]piperazin-1-yl]acetyl]-4-piperidyl]-3-[7-(difluoromethyl)-6-(1-methylpyrazol-4-yl)-3,4-dihydro-2H-quinolin-1-yl]-N-methyl-6,7-dihydro-4H-pyrazolo[4,3-c] pyridine-5-carboxamide] | < 1 | ≤ 0.1 | > 10000
CC(=O)N1CCc2c(c(N3CCCc4cc(-c5cnn(C)c5)c(C(F)F)cc43)nn2C2CCN(C(=O)COC3CCN(c4ncc(C(=O)NC5C(C)(C)C(Oc6ccc(C#N)c(Cl)c6)C5(C)C)cn4)CC3)CC2)C1 (stereo not drawn) [Compound 69, 2-[4-[2-[4-[5-acetyl-3-[7-(difluoromethyl)-6-(1-methylpyrazol-4-yl)-3,4-dihydro-2H-quinolin-1-yl]-6,7-dihydro-4H-pyrazolo[4,3-c]pyridin-1-yl]-1-piperidyl]-2-oxo-ethoxy]-1-piperidyl]-N-[3-(3-chloro-4-cyano-phenoxy)-2,2,4,4-tetramethyl-cyclobutyl]pyrimidine-5-carboxamide] | < 1 | 0.1 to 1 | > 10000
CNC(=O)N1CCc2c(c(N3CCCc4cc(-c5cnn(C)c5)c(C(F)F)cc43)nn2C2CCN(C(=O)COCCOCC3CCN(c4ncc(C(=O)NC5C(C)(C)C(Oc6ccc(C#N)c(Cl)c6)C5(C)C)cn4)CC3)CC2)C1 (stereo not drawn) [Compound 104, 1-[1-[2-[2-[[1-[5-[[3-(3-chloro-4-cyano-phenoxy)-2,2,4,4-tetramethyl-cyclobutyl]carbamoyl]pyrimidin-2-yl]-4-piperidyl]methoxy]ethoxy]acetyl]-4-piperidyl]-3-[7-(difluoromethyl)-6-(1-methylpyrazol-4-yl)-3,4-dihydro-2H-quinolin-1-yl]-N-methyl-6,7-dihydro-4H-pyrazolo[4,3-c]pyridine-5-carboxamide] | < 1 | 0.1 to 1 | > 10000
CNC(=O)N1CCc2c(c(N3CCCc4cc(-c5cnn(C)c5)c(C(F)F)cc43)nn2C2CCN(C(=O)COCCOC3CCN(c4ncc(C(=O)NC5C(C)(C)C(Oc6ccc(C#N)c(Cl)c6)C5(C)C)cn4)CC3)CC2)C1 (stereo not drawn) [Compound 98, 1-[1-[2-[2-[[1-[5-[[3-(3-chloro-4-cyano-phenoxy)-2,2,4,4-tetramethyl-cyclobutyl]carbamoyl]pyrimidin-2-yl]-4-piperidyl]oxy]ethoxy]acetyl]-4-piperidyl]-3-[7-(difluoromethyl)-6-(1-methylpyrazol-4-yl)-3,4-dihydro-2H-quinolin-1-yl]-N-methyl-6,7-dihydro-4H-pyrazolo[4,3-c]pyridine-5-carboxamide] | < 1 | ≤ 0.1 | > 10000
CC(=O)N1CCc2c(c(N3CCCc4cc(-c5cnn(C)c5)c(C(F)F)cc43)nn2C2CN(C(=O)CN3CCN(c4ncc(C(=O)NC5C(C)(C)C(Oc6ccc(C#N)c(Cl)c6)C5(C)C)cn4)CC3)C2)C1 (stereo not drawn) [Compound 65, 2-[4-[2-[3-[5-acetyl-3-[7-(difluoromethyl)-6-(1-methylpyrazol-4-yl)-3,4-dihydro-2H-quinolin-1-yl]-6,7-dihydro-4H-pyrazolo[4,3-c]pyridin-1-yl]azetidin-1-yl]-2-oxo-ethyl]piperazin-1-yl]-N-[3-(3-chloro-4-cyano-phenoxy)-2,2,4,4-tetramethyl-cyclobutyl]pyrimidine-5-carboxamide] | < 1 | ≤ 0.1 | > 10000
CC(=O)N1CCc2c(c(N3CCCc4cc(-c5cnn(C)c5)c(C(F)F)cc43)nn2C2CCN(CC3CCN(c4ncc(C(=O)NC5C(C)(C)C(Oc6ccc(C#N)c(Cl)c6)C5(C)C)cn4)CC3)CC2)C1 (stereo not drawn) [Compound 84, 2-[4-[[4-[5-acetyl-3-[7-(difluoromethyl)-6-(1-methylpyrazol-4-yl)-3,4-dihydro-2H-quinolin-1-yl]-6,7-dihydro-4H-pyrazolo[4,3-c]pyridin-1-yl]-1-piperidyl]methyl]-1-piperidyl]-N-[3-(3-chloro-4-cyano-phenoxy)-2,2,4,4-tetramethyl-cyclobutyl]pyrimidine-5-carboxamide] | < 1 | ≤ 0.1 | > 10000
CC(=O)N1CCc2c(c(-c3cccc4cc(-c5ccc(C(=O)NCCCc6ncc(C(=O)NC7C(C)(C)C(Oc8ccc(C#N)c(Cl)c8)C7(C)C)cn6)nc5)ncc34)nn2C2CCOCC2)C1 (stereo not drawn) [Compound 77, 2-[3-[[5-[8-(5-acetyl-1-tetrahydropyran-4-yl-6,7-dihydro-4H-pyrazolo[4,3-c]pyridin-3-yl)-3-isoquinolyl]pyridine-2-carbonyl]amino]propyl]-N-[3-(3-chloro-4-cyano-phenoxy)-2,2,4,4-tetramethyl-cyclobutyl]pyrimidine-5-carboxamide] | < 1 | 0.1 to 1 | > 10000
CNC(=O)N1CCc2c(c(N3CCCc4cc(-c5cnn(C)c5)c(C(F)F)cc43)nn2C2CCN(C(=O)CN3CCN(c4ccc(C(=O)NC5C(C)(C)C(Oc6ccc(C#N)c(Cl)c6)C5(C)C)cc4)CC3)CC2)C1 (stereo not drawn) [Compound 41, 1-[1-[2-[4-[4-[[3-(3-chloro-4-cyano-phenoxy)-2,2,4,4-tetramethyl-cyclobutyl]carbamoyl]phenyl]piperazin-1-yl]acetyl]-4-piperidyl]-3-[7-(difluoromethyl)-6-(1-methylpyrazol-4-yl)-3,4-dihydro-2H-quinolin-1-yl]-N-methyl-6,7-dihydro-4H-pyrazolo[4,3-c]pyridine-5-carboxamide] | < 1 | 0.1 to 1 | > 10000
CC(=O)N1CCc2c(c(N3CCCc4cc(-c5cnn(C)c5)c(C(F)F)cc43)nn2C2CCN(C(=O)C3CCN(c4ncc(C(=O)NC5C(C)(C)C(Oc6ccc(C#N)c(Cl)c6)C5(C)C)cn4)CC3)CC2)C1 (stereo not drawn) [Compound 22, 2-[4-[4-[5-acetyl-3-[7-(difluoromethyl)-6-(1-methylpyrazol-4-yl)-3,4-dihydro-2H-quinolin-1-yl]-6,7-dihydro-4H-pyrazolo[4,3-c]pyridin-1-yl]piperidine-1-carbonyl]-1-piperidyl]-N-[3-(3-chloro-4-cyano-phenoxy)-2,2,4,4-tetramethyl-cyclobutyl]pyrimidine-5-carboxamide] | < 1 | ≤ 0.1 | > 10000
